The series is described as follows: Toxicity in Balb/c nude mouse xenografted with human A549 cells assessed as reduction in body weight at 25 mg/kg, ip administered for 14 days. The format is organism-based. Conditions: in vivo, 336 h, time 14 day.

On to `Cl.Nc1ccn([C@@H]2O[C@H](CO)[C@@H](O)C2(F)F)c(=O)n1` [GEMCITABINE HYDROCHLORIDE], for which the Activity result was “Toxic”.

The values above are taken from ChEMBL document CHEMBL6083206, “SLL-1A-16 suppresses proliferation and induces autophagy in non-small-cell lung cancer cells via the AKT/mTOR signaling pathway” (RSC Med Chem, 2024).
